Measurements from US20170056422A1, “PLASMODIUM LIVER-STAGE INHIBITORS AND RELATED METHODS” (Seattle Biomedical Research Institute, priority 2014, published 2017).
“Also recorded” adds a separate entry of the source. Where two headings read alike, the source gives them in different places.

How the values were obtained:
P. yoelii LS parasites [1] = assay: Quantification of LS parasites in P. yoelii-infected Hepa 1-6 cells by manual counting; type: cell-based, Plasmodium yoelii; details: for LS burden: 100 nM, 24 or 48 hours; for effect of adding pan-caspase inhibitor qVD-OPh on the LS reduction by the drug: qVD-OPh 20 μM
Experimental: Quantification of LS parasites after ABT-737, ABT-199, Obatoclax, Nutlin-3, or Serdemetan treatment by manual counting. In all, 1.5×10^5 Hepa 1-6 cells were seeded in DMEM complete medium in each well of an eight-well Permanox slide. Cells were infected with 5×10^4 P. yoelii sporozoites. Slides were centrifuged for 3 min at 515× g in a hanging-bucket centrifuge to aid in sporozoite invasion. After 90 min, we removed media that contained sporozoites that had not infected the cells and added fresh media only, or media containing ABT-737 (100 nM), ABT-199 (100 nM), Obatoclax (100 nM), Nutlin-3 (20 μM), or Serdemetan (10 μM) with or without qVD-OPh (20 μM). We allowed LSs to develop for 24 hours or 48 hours, at which time cells were fixed with 4% paraformaldehyde, blocked, and permeabilized for 1 hour in PBS with the addition of 0.1% Triton X-100 and 2% BSA. Staining steps were performed in PBS supplemented with 2% BSA. We stained cells using anti-sera to Plasmodium HSP70 and UIS4 proteins at 4° C. overnight and then washed several times, and antibodies were visualized with the use of AlexaFluor-488 goat anti-mouse and AlexaFluor-594 goat anti-rabbit secondary antibody (Life Technologies, Grand Island, N.Y., USA). We used DAPI stain to visualize both hepatocyte and parasite nuclei. Sporozoites that had not invaded and/or developed in hepatoma cells were distinguished by UIS4 circumferential staining and morphology. All LS parasites in each well were counted, and each assay was performed in biological triplicate.

p53 = assay: Quantification of p53 by Western blotting in Hepa 1-6 cells; type: cell-based; details: immunoblot, 24 or 48 hours
Experimental: Quantification of p53 by Western Blotting. We plated 10^6 Hepa 1-6 cells per well of a 6-well plate in DMEM complete media and treated with complete media only, 20 μM Nutlin-3, 100 nM ABT-737, 100 nM Obatoclax, or 10 μM Serdemetan for 24 or 48 hours. Cells were lysed in SDS lysis buffer (2% SDS, 50 mM Tris-HCl, 5% glycerol, 5 mM EDTA, 1 mM NaF, 10 mM β-glycerophosphate, 1 mM PMSF, 1 mM activated Na3VO4, 1 mM DTT, 1% phosphatase inhibitor cocktail 2; Sigma-Aldrich), 1% PhosSTOP Phosphatase Inhibitor Cocktail Tablet (Roche), filtered overnight at 3000 rpm through AcroPrep Advance Filter Plates (Pall Corporation) and stored at −80° C. Western blots were performed according to manufacturer instruction with the iBlot Dry Transfer System (Life Technologies, Carlsbad, Calif., USA) using an antibody to p53 (Clone 1C12; Cell Signaling Technology) and then normalized to signal from an anti-β-actin (Cell Signaling Technology) Western blot. Signals from immunoblots were detected using either an Alexa 680-conjugated anti-rabbit antibody or an Alexa 800-conjugated anti-mouse antibody (LI-COR Biosciences). Membranes were visualized using an Odyssey infrared imaging system (LI-COR Biosciences).

Hepa 1-6 cells [2] = assay: Cell permeabilization (cell death) assay, flow cytometry; type: cell-based; details: 48 hour treatment
Experimental: Cell Permeabilization Assay. Hepa 1-6 cells were seeded in a 24-well tissue culture-treated plate at 3×10^5 cells per well overnight. […] Briefly, cells were stained live with reconstituted dye (1:500) in 500 μL PBS on ice for 30 minutes, mixing periodically, washed twice with 500 μL PBS, and then fixed with 100 μL BD Cytofix/Cytoperm™ fixation/permeabilization (BD Biosciences, San Jose, Calif., USA) solution for 15 minutes on ice. Cells were stored in 200 μL 5 mM EDTA in PBS at 4° C. until analyzed using a BD™ LSR II flow cytometer (BD Biosciences) at 605 nm on the violet 405 nm laser, and resulting FCS files were analyzed with FlowJo 7.6.1 (Tree Star, Ashland, Oreg., USA).

Hepa 1-6 cells [3] = assay: Apoptosis in Hepa 1-6 cells (data not shown); type: cell-based
[4] = reportedly; cited from earlier work
[5] = cited from earlier work
P. yoelii LS parasites [6] = assay: Quantification of LS parasites in P. yoelii-infected Hepa 1-6 cells by manual counting; type: cell-based, Plasmodium yoelii; details: Serdemetan 10 μM for 24 hours both before and after infection
P. yoelii [7] = assay: Specific action of Nutlin-3 in vivo, patency in wild-type and liver-specific p53 knockout mice; details: 1000 spz
Source text: Specific Action of Nutlin-3 in vivo experiment. Liver-specific p53 knock-out mice were generated by breeding p53 floxed mice (B6.129P2-Trp53tm1Brn/J) and cre-albumin (B6.Cg-Tg(Alb-cre)21Mgn/J). P53 floxed/unfloxed alleles were identified by size of band on a 2% agarose gel (270 bp for WT, 390 bp for floxed) using the primers: forward—[…] (SEQ ID NO:1) and reverse—[…] (SEQ ID NO:2). Cre was identified by the presence/absence of the mutant allele (heterozygotes vs. homozygotes were not distinguished) using the primers: forward—[…] (SEQ ID NO:3) and reverse—[…] (SEQ ID NO:4). All DNA was extracted using Qiagen DNEasy Blood & Tissue Kit (Qiagen Inc., Valencia, Calif., USA) per manufacturer's protocol. PCR was performed using BioMix Red (2×) from BioLine (BioLine USA Inc., Taunton, Mass., USA).
Both wild-type p53 (cre-alb) and liver-specific p53 knockout mice (cre-alb/flox-p53) were treated with either vehicle or Nutlin-3 as described in the previous in vivo method. On the second day of treatment, all mice were infected i.v. with 1000 P. yoelii sporozoites. Patency was checked by Giemsa-stained thin blood smear daily until all mice became patent. Animal handling was conducted according to the Institutional Animal Care and Use Committee-approved protocols.

P. yoelii [8] = assay: Nutlin-3 and Obatoclax in vivo, blood stage patency in BALB/cJ mice; details: Nutlin-3 200 mg/kg twice daily, Obatoclax 5 mg/kg once daily; 1000 or 100 spz i.v.
Experimental: Nutlin-3 and Obatoclax in vivo experiments. 60 BALB/cJ mice (Jackson Laboratory, Bar Harbor, Me., USA) were treated with either vehicle control 5 mg/kg of Obatoclax, 200 mg/kg Nutlin-3, or both Obatoclax and Nutlin-3 by oral gavage once (Obatoclax) or twice (Nutlin-3) daily for 3 days. On the second day of treatment, mice were injected with 1000 or 100 P. yoelii sporozoites. Patency was checked by Giemsa-stained thin blood smear daily for the first 7 days, then every other day until day 14. Animal handling was conducted according to the Institutional Animal Care and Use Committee-approved protocols.

Row | SMILES | LS burden (P. yoelii LS parasites [1]) | effect of adding pan-caspase inhibitor qVD-OPh on the LS reduction by the drug (P. yoelii LS parasites [1]) | p53 protein levels (p53) | uninfected hepatoma cell death (Hepa 1-6 cells [2]) | also measured
1 | CN(C)CC[C@H](CSc1ccccc1)Nc1ccc(S(=O)(=O)NC(=O)c2ccc(N3CCN(Cc4ccccc4-c4ccc(Cl)cc4)CC3)cc2)cc1[N+](=O)[O-] [ABT-737] | efficiently eliminates parasites | almost completely reversed | do not increase p53 levels | no increase | 
2 | CC(C)[C@H](NC(=O)c1ccc2ccccc2n1)C(=O)N[C@@H](CC(=O)O)C(=O)COc1c(F)cccc1F [qVD-OPh, N-(2-Quinolyl)-L-valyl-L-aspartyl-(2,6-difluorophenoxy) methylketone] |  |  |  |  | apoptosis in Hepa 1-6 cells (Hepa 1-6 cells [3]): reverses nearly all apoptosis
3 | CC1(C)CCC(CN2CCN(c3ccc(C(=O)NS(=O)(=O)c4ccc(NCC5CCOCC5)c([N+](=O)[O-])c4)c(Oc4cnc5[nH]ccc5c4)c3)CC2)=C(c2ccc(Cl)cc2)C1 [ABT-199] | minimal decrease; also recorded: did not reduce LS burden |  |  |  | 
4 | c1ccc2c(CCNc3ccc(Nc4ccncc4)cc3)c[nH]c2c1 [Serdemetan] |  | did not reverse | substantially boosted |  | P. yoelii LS burden versus Serdemetan concentration (P. yoelii LS parasites [1]; 48 hours): dose-dependent manner; LS-infected hepatocytes eliminated (P. yoelii LS parasites [1]; in vitro, half the dose of Nutlin-3): more than 90%; toxicity compared with Nutlin-3 [4]: lower toxicity; tolerability in humans ([5]; clinical trials): well-tolerated; LS parasites (P. yoelii LS parasites [6]): completely eliminated
5 | COc1ccc(C2=N[C@@H](c3ccc(Cl)cc3)[C@@H](c3ccc(Cl)cc3)N2C(=O)N2CCNC(=O)C2)c(OC(C)C)c1 [Nutlin-3] |  | completely unaltered | substantially boosted | no increase | onset of patency (P. yoelii [7]; cre-Alb (wild-type p53) mice, 200 mg/kg twice daily oral gavage): highly effective; onset of patency (P. yoelii [7]; liver-specific p53 knockout mice (p53-flox/cre-Alb), 200 mg/kg twice daily): did not delay the onset of patency; liver stage parasites eliminated (P. yoelii LS parasites [1]; Nutlin-3 20 μM, 48 hours): 97%; onset of patency (P. yoelii [8]): delay in the onset of patency
6 | COC1=CC(c2cc3ccccc3[nH]2)=N/C1=C\c1[nH]c(C)cc1C [Obatoclax] |  |  |  | no increase | tolerability in humans ([5]; human, in vivo): well-tolerated
